Experiment [1] concerns SIRT3. The experiment can be described thus: SIRT3 protein levels in liver cells. Format: cell-based. The following applies: AML-12 liver cells, 24 hours; p=0.028. From the text: (§1) To that end, the inventors used endothelial cells (EOMA cells) and liver cells (AML-12 cells) in vitro and quantified various markers in response to exposure of the cells to environmental challenge in the presence and absence of DDA at low concentrations. Unless indicated otherwise, the DDA concentration in the in vitro experiments was 5 mcg per microliter. More specifically, the inventors measured p-H2AX protein levels as a marker for DNA damage, PGC-1α protein levels as a marker for mitochondrial biogenesis, NAMPT enzyme levels as a marker for potential for NAD+ production, and total antioxidant capacity as a marker of cellular health. In addition, the inventors also measured global SIRT activity as a gauge of activity for all SIRT enzymes, and in particular SIRT1 enzyme levels as markers for autophagy and various beneficial processes associated with a caloric restricted diet, and SIRT3 levels as markers for mitochondrial function and longevity.
In still further experiments, the inventors also investigated whether or not DDDA could have stimulatory effects on selected SIRT proteins. More specifically, the inventors tested the effects of DDDA on SIRT3 and SIRT1, and exemplary results are shown in FIG. 9 and FIG. 10, respectively. […] N=5-6 plates per treatment. […] Beyond this trend, however, no other observations were evident. N=5-6 plates per treatment.

For experiment [2], the system named is SIRT3. The experiment can be described thus: SIRT3 in endothelial cells. The note with it: EOMA endothelial cells. The format is cell-based.
Description: as §1
In yet a further series of experiments, the inventors also sought to confirm whether or not DDDA would have a modulatory effect in endothelial cells using the same markers and experimental conditions as noted above.
N=5-6 plates per treatment.

The test system of experiment [3] is liver of rats. The experiment can be described thus: qReal time-PCR gene expression in the liver of rats from in vivo study 1 and 2. Set-up: species or system Wistar rats. The procedure: Panels A and B. • Study 1: Twenty adult Wistar rats, aged 8-10 weeks, were included in the study. The rats were housed in individual cages at 22° C. with 12-h light cycles and had ad libitum access to food and water. Rats were fed a high fat high cholesterol diet (44% Carbohydrate, 14% Protein, 42% fat+0.2% Cholesterol) for 4 weeks in the presence or absence of 1% Dodecanedioic acid, sodium salt dissolved in the water (FIG. 25, Panel A). Body weight and food/water intake were monitored weekly. • Study 2: Twenty adult Wistar rats, aged 8-10 weeks, were included in the study. The rats were housed in individual cages at 22° C. with 12-h light cycles and had ad libitum access to food and water. Rats were fed a high fat-high cholesterol diet (44% Carbohydrate, 14% Protein, 42% fat+0.2% Cholesterol). After 9 weeks of diet, rats were randomly assigned to one of the following groups: 4 weeks of high fat-high cholesterol diet or 4 weeks of high fat-high cholesterol diet and 1% Dodecanedioic acid, sodium salt dissolved in the water (FIG. 25, Panel B). Body weight and food/water intake were monitored weekly.
Total RNA from human primary hepatocytes was extracted using the RNeasy Plus Mini Kit according to the indications provided by the company. A small aliquot of total RNA obtained (3 μl) was subjected to qualitative and quantitative control by using the microdrop. The qualitative and quantitative assessment of the individual samples was determined using a dedicated software. The total RNA was reverse transcribed into cDNA by using iScript RT. SYBR Green gene expression assays were performed according to the manufacturer's instruction using the iQTMSYBR Green Supermix and the CFX96 Touch Real-Time PCR Detection System. For this purpose, the following pairs of primer were used: solute carrier family 13 member 5 (SLC13A5) (forward 5′ […] 3′ (SEQ ID NO:1) and reverse 5′ […] 3′ (SEQ ID NO:2)), Diacylglycerol O-Acyltransferase 1 (DGAT1) (forward 5′ […] 3′ (SEQ ID NO:3) and reverse 5′ […] 3′ (SEQ ID NO:4)), Fatty Acid Synthase (FASN) (forward 5′ […] 3′ (SEQ ID NO:5) and reverse 5′ […] 3′ (SEQ ID NO:6)), carnitine palmitoyltransferase 1A (CPT1A) (forward 5′ […] 3′ (SEQ ID NO:7) and reverse 5′ […] 3′ (SEQ ID NO:8)) and Acetyl-CoA carboxylase (ACC1) (forward 5′ […] 3′ (SEQ ID NO:9) and reverse 5′ […] 3′ (SEQ ID NO:10)). mRNA expression levels were normalized to B2-microglobulin (forward 5′[…] 3′ (SEQ ID NO:11); and reverse 5′[…] 3′ (SEQ ID NO:12)) and quantification of relative gene expression, presented as percentage of the relevant baseline, was calculated using the 2-ACT (comparative threshold) method.
C12 decrease de novo lipogenesis and an increase in fatty acid oxidation in vitro and in vivo: To test the hypothesis that C12 could affect de novo lipogenesis and fatty acid beta-oxidation, human primary hepatocytes were stimulated with palmitic acids (0.4 mM) in the presence or absence of C12 1% (v/w). […] Similar results were also observed in our in vivo experiments. […] Data from in vivo study 1 and 2 were pooled together.

Setting [4] is: in vivo study 1 and 2 pooled, vs control group.
Where [5] appears, read: rats from in vivo study 1 and 2, vs control group.

As to `O=C(O)CCCCCCCCCCC(=O)O` [DDDA, dodecanedioic acid], the SIRT3 protein levels result in experiment [1] is listed as “significantly increased”. Moreover, the SIRT3 result in experiment [2] (24 hours) was “significant decline”. Besides, the SIRT3 entry in experiment [2] (acute (6-hour data)) is “strong and acute increase”. Besides, in experiment [3] (setting [4]), the “ACC1 (de novo lipogenesis enzyme) in liver” value is “decrease”, the “CPT1A (fatty acid beta-oxidation enzyme) in liver” value was “significant increase”, the “DGAT (de novo lipogenesis enzyme) in liver” value was “decrease” and the “FASN (de novo lipogenesis enzyme) in liver” value was “decrease”. Moreover, the “gene expression of citrate transporter SLC13A5 in liver” value in experiment [3] (setting [4]) is recorded as “decrease”. Also, in experiment [3] (setting [5]), the “COLA1A gene expression in liver” value was “decreased expression”, the “TGFβ gene expression in liver” value is “decreased expression” and the “αSMA gene expression in liver” value is “decreased expression”.
